Results on 9 compounds are retold here after article PMC12169610 (Journal of Medicinal Chemistry, 2025).

SMILES strings stand for the structures. Like-named read-outs stand apart in the source and are kept apart here. Marks after values point to notes of the source that are not given here.

The term Papp A→B denotes the apparent permeability from the apical to the basolateral side of a cell layer. A lower Papp A→B goes with poor permeation. For orientation: IC50 means the point on the concentration scale where inhibition reaches its midpoint. Low values mean higher potency, high ones lower potency. As a reminder, the efflux ratio is a quotient of directional permeabilities that is used to spot active efflux.

One data set concerns P-gp. In words: in vitro. It counts as in vitro ADME. The conditions noted are these: pig, LLC-PK1.
In another data set the test system is fasted rat. In words: Acute refeeding assay. It counts as in vivo. The conditions noted are these: for Inhibition of Food Intake at 1 h (%), 5 mg/kg dose: 5 mg/kg PO.
The conditions of data set [1]: predicted from PK data across species.
The target in the next data set is T1, CYP1A2 (Homo sapiens, UniProt P05177).
T1 sequence (P05177 1-516): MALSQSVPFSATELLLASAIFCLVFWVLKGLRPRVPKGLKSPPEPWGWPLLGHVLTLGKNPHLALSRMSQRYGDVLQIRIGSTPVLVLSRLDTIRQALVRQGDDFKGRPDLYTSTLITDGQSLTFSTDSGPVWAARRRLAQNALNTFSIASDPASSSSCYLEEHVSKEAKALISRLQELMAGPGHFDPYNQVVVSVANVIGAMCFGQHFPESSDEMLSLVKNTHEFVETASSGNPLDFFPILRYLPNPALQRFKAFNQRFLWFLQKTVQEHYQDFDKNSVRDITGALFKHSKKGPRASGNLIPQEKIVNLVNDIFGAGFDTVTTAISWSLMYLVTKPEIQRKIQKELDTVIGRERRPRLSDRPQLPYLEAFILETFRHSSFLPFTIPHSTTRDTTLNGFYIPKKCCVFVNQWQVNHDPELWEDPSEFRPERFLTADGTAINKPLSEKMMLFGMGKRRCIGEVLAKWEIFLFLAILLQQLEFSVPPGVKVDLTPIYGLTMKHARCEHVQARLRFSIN

The target in the next data set is CYP2C19 (Homo sapiens, UniProt P33261).
Chain of CYP2C19 (P33261 whole entry): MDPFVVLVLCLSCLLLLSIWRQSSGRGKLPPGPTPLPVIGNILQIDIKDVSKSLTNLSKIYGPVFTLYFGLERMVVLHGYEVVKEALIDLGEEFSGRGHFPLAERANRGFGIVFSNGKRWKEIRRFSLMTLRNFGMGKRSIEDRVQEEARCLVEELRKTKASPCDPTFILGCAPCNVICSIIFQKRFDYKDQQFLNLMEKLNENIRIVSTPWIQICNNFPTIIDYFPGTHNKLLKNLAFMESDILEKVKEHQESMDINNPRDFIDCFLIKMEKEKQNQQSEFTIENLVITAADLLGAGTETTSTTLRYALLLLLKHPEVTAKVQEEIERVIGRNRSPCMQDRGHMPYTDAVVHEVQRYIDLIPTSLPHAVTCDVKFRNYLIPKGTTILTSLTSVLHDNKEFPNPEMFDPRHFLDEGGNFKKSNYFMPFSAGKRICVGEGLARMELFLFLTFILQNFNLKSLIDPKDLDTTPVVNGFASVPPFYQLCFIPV
In data set [2] the test system is Eurofins safety screen panel. The conditions noted are these: at 10 μM.
The test system of a further data set is major CYP enzymes. Kind of data set: CYP time-dependent inhibition.
The target of a further data set is T2, CYP2B6 (Homo sapiens, UniProt P20813).
T2 sequence (P20813 1-491): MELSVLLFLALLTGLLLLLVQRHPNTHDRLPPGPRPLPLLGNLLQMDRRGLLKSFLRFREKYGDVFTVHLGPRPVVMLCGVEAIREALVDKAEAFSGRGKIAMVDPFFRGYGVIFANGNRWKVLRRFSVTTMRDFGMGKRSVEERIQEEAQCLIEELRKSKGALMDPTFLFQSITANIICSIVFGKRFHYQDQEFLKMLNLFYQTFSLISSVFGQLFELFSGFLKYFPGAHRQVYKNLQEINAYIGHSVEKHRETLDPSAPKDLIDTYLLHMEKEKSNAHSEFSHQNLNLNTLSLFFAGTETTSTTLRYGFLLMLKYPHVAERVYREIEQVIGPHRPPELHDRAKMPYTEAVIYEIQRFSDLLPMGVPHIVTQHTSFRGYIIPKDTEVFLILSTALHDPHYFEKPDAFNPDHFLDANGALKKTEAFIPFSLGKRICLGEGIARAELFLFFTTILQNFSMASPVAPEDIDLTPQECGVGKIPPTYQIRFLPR
In words: CYP inhibition. The data set is classed as in vitro ADME.

The next data set concerns the target CYP2C9 (Homo sapiens, UniProt P11712).
A short description of the next data set: in vivo. The conditions noted are these: cynomolgus monkey, iv, 2 mg/kg.
For the next data set, the target named is CYP2D6 (Homo sapiens, UniProt P10635).
Chain of CYP2D6 (P10635 whole entry): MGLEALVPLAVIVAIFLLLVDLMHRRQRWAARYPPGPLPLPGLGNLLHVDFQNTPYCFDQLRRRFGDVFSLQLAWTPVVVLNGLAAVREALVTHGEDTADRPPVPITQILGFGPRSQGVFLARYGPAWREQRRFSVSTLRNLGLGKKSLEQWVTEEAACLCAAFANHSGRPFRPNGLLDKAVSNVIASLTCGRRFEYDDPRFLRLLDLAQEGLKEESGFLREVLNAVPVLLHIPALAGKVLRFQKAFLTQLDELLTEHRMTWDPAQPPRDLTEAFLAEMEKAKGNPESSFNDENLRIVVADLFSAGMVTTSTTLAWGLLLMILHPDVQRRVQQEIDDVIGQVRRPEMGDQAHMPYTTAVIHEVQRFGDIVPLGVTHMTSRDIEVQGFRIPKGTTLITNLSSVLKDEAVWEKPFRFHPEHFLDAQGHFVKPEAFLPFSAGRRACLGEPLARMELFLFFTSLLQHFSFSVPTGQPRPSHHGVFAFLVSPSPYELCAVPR
For a further data set, the target named is CYP3A4 (Homo sapiens, UniProt P08684).
Chain of CYP3A4 (P08684 whole entry): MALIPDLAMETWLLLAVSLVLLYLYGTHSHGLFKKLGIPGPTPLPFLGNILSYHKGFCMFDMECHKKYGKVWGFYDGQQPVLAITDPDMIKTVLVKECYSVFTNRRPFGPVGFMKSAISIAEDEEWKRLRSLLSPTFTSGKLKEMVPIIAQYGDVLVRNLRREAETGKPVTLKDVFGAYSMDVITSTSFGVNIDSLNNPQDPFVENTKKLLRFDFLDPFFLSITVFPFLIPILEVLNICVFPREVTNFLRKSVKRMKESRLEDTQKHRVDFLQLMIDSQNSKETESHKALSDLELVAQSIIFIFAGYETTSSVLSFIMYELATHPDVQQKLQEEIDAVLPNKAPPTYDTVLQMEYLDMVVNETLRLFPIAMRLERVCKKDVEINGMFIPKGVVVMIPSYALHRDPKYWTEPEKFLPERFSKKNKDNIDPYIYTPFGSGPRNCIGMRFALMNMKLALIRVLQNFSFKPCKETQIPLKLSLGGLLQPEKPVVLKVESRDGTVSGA
In a further data set the target is T3, CYP2C8 (Homo sapiens, UniProt P10632).
T3 sequence (P10632 1-490): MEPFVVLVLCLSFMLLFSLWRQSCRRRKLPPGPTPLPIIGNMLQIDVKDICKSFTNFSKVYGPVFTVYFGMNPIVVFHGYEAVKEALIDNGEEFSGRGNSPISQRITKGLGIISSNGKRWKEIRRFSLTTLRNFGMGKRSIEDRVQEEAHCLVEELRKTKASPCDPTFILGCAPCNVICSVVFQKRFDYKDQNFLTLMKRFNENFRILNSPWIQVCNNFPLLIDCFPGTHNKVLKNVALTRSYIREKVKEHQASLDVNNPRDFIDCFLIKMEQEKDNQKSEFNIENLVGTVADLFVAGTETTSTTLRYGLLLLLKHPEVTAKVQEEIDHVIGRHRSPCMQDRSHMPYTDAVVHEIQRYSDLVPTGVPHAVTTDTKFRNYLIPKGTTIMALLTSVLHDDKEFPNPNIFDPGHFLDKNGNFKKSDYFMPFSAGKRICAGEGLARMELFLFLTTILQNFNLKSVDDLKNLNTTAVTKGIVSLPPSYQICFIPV

The target of the next data set is T4, 5-HT2CR (Homo sapiens, UniProt P28335).
T4 sequence (P28335 33-458): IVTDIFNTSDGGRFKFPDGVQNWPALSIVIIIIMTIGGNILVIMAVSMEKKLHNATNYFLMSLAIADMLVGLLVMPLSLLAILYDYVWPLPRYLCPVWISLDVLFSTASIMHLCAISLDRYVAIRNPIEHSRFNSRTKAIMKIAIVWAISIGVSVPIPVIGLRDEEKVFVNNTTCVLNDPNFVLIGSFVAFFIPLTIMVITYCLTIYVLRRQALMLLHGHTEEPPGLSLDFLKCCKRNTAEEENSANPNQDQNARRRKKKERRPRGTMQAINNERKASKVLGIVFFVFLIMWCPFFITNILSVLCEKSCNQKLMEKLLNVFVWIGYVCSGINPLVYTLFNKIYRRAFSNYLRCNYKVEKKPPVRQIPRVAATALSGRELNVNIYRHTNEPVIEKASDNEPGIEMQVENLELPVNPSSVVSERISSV
It counts as binding.

Data set [3] can be described thus: Dynamic moisture sorption test. It counts as physicochemical. The conditions noted are these: 90% relative humidity, 25 °C.

Chain of CYP2C9 (P11712 whole entry): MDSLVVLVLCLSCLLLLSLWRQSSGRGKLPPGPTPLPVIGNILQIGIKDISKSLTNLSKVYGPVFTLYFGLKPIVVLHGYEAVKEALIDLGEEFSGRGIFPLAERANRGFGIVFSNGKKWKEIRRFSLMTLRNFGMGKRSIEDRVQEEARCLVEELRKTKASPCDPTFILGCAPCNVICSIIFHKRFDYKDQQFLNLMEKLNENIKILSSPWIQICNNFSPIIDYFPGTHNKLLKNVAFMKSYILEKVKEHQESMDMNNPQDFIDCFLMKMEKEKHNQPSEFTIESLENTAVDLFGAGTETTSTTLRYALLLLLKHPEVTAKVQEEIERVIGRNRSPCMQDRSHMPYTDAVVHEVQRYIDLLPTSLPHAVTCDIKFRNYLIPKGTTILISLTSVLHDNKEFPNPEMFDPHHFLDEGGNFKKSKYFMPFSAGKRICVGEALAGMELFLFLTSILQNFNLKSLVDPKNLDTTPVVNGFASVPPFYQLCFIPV

`CNC(=O)c1ccc2c3c1C(CC(F)(F)F)CN3CCNC2` (single isomer, unassigned; (+)) [(+)-19a] returned a Papp A→B in the data set with P-gp of 14.8 ×10⁻⁶ cm/s.

Regarding `CNC(=O)c1ccc2c3c1CCN3CCNC2` [7b, N-Methyl-1,2,3,4,6,7-hexahydro-[1,4]diazepino[6,7,1-hi]indole-8-carboxamide], the “Hypophagic effect after preadministration of 5-HT2CR antagonist SB242084” value with fasted rat (10 mg/kg po, 1 h, SB242084 1 mg/kg PO) was “blocked”. Besides, the “Predicted half-life in human by allometric scaling” value in [1] is listed as 3 h.

In turn, `C[C@H]1CN2CCNCc3ccc(C(=O)NCC(F)F)c1c32` [(+)-19m, (+)-N-(2,2-Difluoroethyl)-7-methyl-1,2,3,4,6,7-hexahydro-[1,4]diazepino[6,7,1-hi]indole-8-carboxamide] came in with a Rat brain protein-binding of 53%. Moreover, the IC50 on CYP1A2 was above 30 µM. In addition, the half-maximal inhibitory concentration (IC50) against CYP2C19 is above 30 µM. In addition, in [2], the “Binding against >140 target Eurofins safety screen panel” value is listed as below 25%. Besides, the CYP time-dependent inhibition entry with major CYP enzymes is given as “no time-dependent inhibition”. For the same compound, the “Inhibition of Food Intake at 1 h (%), 5 mg/kg dose” value in the data set with fasted rat was 81 ^d %. The same compound registered a 50% inhibitory concentration (IC50) against CYP2B6 above 30 µM. The concentration for half-maximal inhibition (IC50) against CYP2C9 was above 30 µM. This compound also showed a CL renal in the data set “in vivo” of 1.8 mL/h/kg. Moreover, the IC50 at CYP2D6 is above 30 µM. The IC50 against CYP3A4 is above 30 µM. The concentration for half-maximal inhibition (IC50) against CYP2C8 is above 30 µM. For the same compound, the apparent permeability from apical to basolateral (Papp A→B) with P-gp stood at 8.9 ×10⁻⁶ cm/s. For the same compound, in [1], the “Predicted half-life in human by allometric scaling” value is “approximately 7 h”.

For the compound `CCC1CN2CCNCc3ccc(C(=O)NCC(F)F)c1c32` (single isomer, unassigned; (+)) [(+)-19k, (+)-N-(2,2-Difluoroethyl)-7-ethyl-1,2,3,4,6,7-hexahydro-[1,4]diazepino[6,7,1-hi]indole-8-carboxamide], in the data set on fasted rat, the “Inhibition of Food Intake at 1 h (%), 5 mg/kg dose” value is recorded as 27 ^d %. Further, in the data set on P-gp, the apical-to-basolateral permeability (Papp A→B) is 12.8 ×10⁻⁶ cm/s and the efflux ratio is 2.16.

For the compound `CCCNC(=O)c1ccc2c3c1C(CC(F)(F)F)CN3CCNC2` (single isomer, unassigned; (+)) [(+)-19c], the “Inhibition of Food Intake at 1 h (%) with 10 mg/kg po” value with fasted rat (10 mg/kg PO) is given as 53 ^c %.

For `CSCCNC(=O)c1ccc2c3c1CCN3CCNC2` [7j, N-(2-(Methylthio)ethyl)-1,2,3,4,6,7-hexahydro-[1,4]diazepino[6,7,1-hi]indole-8-carboxamide], the “Selectivity for 5-HT2CR over 5-HT2AR and 5-HT2BR in binding assays” value on 5-HT2CR was above 500 fold.

`C[C@H]1CN2CCNCc3ccc(C(=O)NCC(F)F)c1c32.Cl` [(+)-19m. HCl]: the “Weight gain in dynamic moisture sorption test” value in [3] is given as below 0.1%.

Regarding `CCC1CN2CCNCc3ccc(C(=O)NC)c1c32` (single isomer, unassigned; (+)) [(+)-19i], in the data set on P-gp, the Papp A→B was 7.73 ×10⁻⁶ cm/s.

In the case of `O=C(NCCOc1ccccc1)c1ccc2c3c1CCN3CCNC2` [7p, N-(2-Phenoxyethyl)-1,2,3,4,6,7-hexahydro-[1,4]diazepino[6,7,1-hi]indole-8-carboxamide], the “Selectivity for 5-HT2CR over 5-HT2AR and 5-HT2BR in binding assays” value on 5-HT2CR (125I-DOI binding assay) was around 100 fold.
